Data reported in patent US6537577B1, “Method of prophylaxis for bovine mastitis” (Bio Medical Development Corporation, priority 2001, dated 2003).
Several values for one entry are separate records, joined by “and”; a condition that tells them apart may be missing. Equal values may be shown once.

Key:
Staph. aureus ATCC 29740 [1] = assay: Excised teat study, preliminary trial; assay type: cell-based, Staphylococcus aureus; conditions: for colony count per plate: plates 1-2, count no. 1 and 2
Source text: To evaluate the microbicidal activity of the compositions of EXAMPLE 1 and EXAMPLE 2, basic excised teat models used for these experiments are based on providing procedures by Twomey, A, and M. A Arnold, National Dairy Lab. Report, Ruaburn Agric. Res. Center, Hamilton, New Zealand.
Excess skin and tissue were trimmed, teats were washed in a mild detergent and warm water, rinsed in water, dried, and dipped in 70% ethyl alcohol. Teats were placed in plastic bags in a glycerin and water solution, and subsequently frozen at −20° C. until further use. Frozen teats were thawed in warm water, rinsed in water, dried, and dipped in 70% ethyl alcohol, dried with paper towels, and suspended by metal clips from a glass rod.
The pathogen strain that was used for this study was Staph. aureus ATCC 29740. For preparation of Staph. aureus, five 6-ml tubes of trypticase soy broth (TSB) (Becton Dickinson, Cockeysville, Md.) were inoculated from a culture of Staph. aureus actively growing on trypticase soy agar (TSA) (Becton Dickinson) containing 5% bovine calf blood. These tubes were incubated for 5 to 7 hours at 37° C., and this culture was used to inoculate 250 ml of TSB, which was incubated on a gyratory shaker for 16 hours. After incubation, bacterial cells were pelleted by centrifugation at approximately 7000×g, washed twice in 0.1% proteose peptone (Difco Laboratories, Detroit, Mich.), and resuspended to approximately 200 ml in proteose peptone. Serial dilutions were prepared in proteose peptone, and 0.1 ml was plated on TSA. Plates, were incubated for 24 hours at 37° C. and colonies were counted to determine the microbial concentration of the stock suspension.
(§1) Challenge suspensions of Staph. aureus containing approximately 1×10^8 cfu/ml of each organism (diluted with pasteurized milk) were prepared and used for the excised teat trials. The quenching solution was letheen broth (Difco Laboratories) modified to contain 1% sodium thiosulfate (Sigma Chemical Co., St. Louis, Mo.).
Teats were dipped in a Staph. aereus bacterial suspension to a depth of 15 mm and allowed to drain for 5 minutes. Teats were then dipped into two coating formulations of EXAMPLE 1 and EXAMPLE 2, (Formula No. 3 and Formula No. 5, respectively) to a depth of approximately 30 mm and allowed to drain for 10 minutes. […] The coating was then removed from each teat using a sterile cotton swab by rolling the edge of the softened film using a downward motion toward the teat apex, placed in 5 ml of quencher in sterile blood dilution vials (Baxter Diagnostics, McGaw Park, Ill.), mixed by vortexing for 5 seconds, and after serial dilution, a 0.1-ml aliquot was plated onto TSA. The quenching solution (Bacto-Letheen Broth) was used to inactivate the chlorhexidine germicide and prevent further bacterial killing upon culture. Immediately after the dried coating products were removed from the teats, each teat was rinsed to a total volume of 5 ml of quencher, the rinse collected in sterile blood dilution vials (Baxter Diagnostics) separate from the peelings, mixed by vortexing for 5 seconds, and after serial dilution, a 0.1-ml aliquot was plated to determine the number of organisms remaining on the teat after removal of the coating.

Staph. aureus ATCC 29740 [2] = assay: Excised teat study, Trial 1; assay type: cell-based, Staphylococcus aureus
Experimental: (§2) Teats were prepared as described earlier. The pathogen strains that were used for this study were Staph. aureus ATCC 29740 and Strep. Agalactiae ATCC 27956. A culture of Strep. Agalactiae was prepared by thawing a frozen vial of Strep. Agalactiae and plating on a TSA blood plate. After 24 hours incubation at 37° C., five 6-ml tubes of TSB were inoculated with approximately six colonies of Strep. Agalactiae each. These cultures were incubated at 37° C. for approximately 16 hours and then used to inoculate 250 ml of TSB. This culture was incubated on a gyratory shaker for approximately 5.5 hours. Serial dilutions were prepared in proteose peptone, and 0.1 ml was plated on TSA. Plates were incubated for 24 hours at 37° C. and colonies were counted to determine the microbial concentration of the stock suspension.
as §1, with “The dilution required to prepare a challenge inoculum of approximately 1×10^8 colony-forming units (cfu)/ml of Staph. aureus or Strep. […] Challenge” for “Challenge”, “aureus and Strep. Agalactiae” for “aureus”
(§3) Agalactiae, respectively. […] Teats were dipped in the bacterial challenge suspensions once to a depth of approximately 15 mm and allowed to drain for 5 minutes, then dipped with the test products to a depth of approximately 30 mm and drained for an additional 10 minutes. For the challenged, but undipped negative control teats, the drainage time was 15 minutes. […] This coating film peeling from each teat was placed in sterile blood dilution vials (Baxter Diagnostics). Remaining organisms on teat skin were then removed by rinsing each teat with approximately 5 ml of quencher expressed from a polyethylene wash bottle into the same vial containing the coating film peeling. Each vial was vortexed for 5 seconds before plating.
(§4) For all three trials, serial dilutions of peelings or rinses were made in 0.1% proteose peptone, and platinf was in 0.1-ml aliquots on Mannitol Salt agar (Becton Dickinson) for Staph. aureus and TKT/FC agar (Bccton Dickinson) with 0.3% thallium acetate (Sigma Chemical Co.) for Strep. Agalactiae. […] Plates were incubated for 24 hours at 37° C. and colonies were counted. The geometric mean count of the plates was determined, multiplied by […] to express the total volume of rinse, and then multiplied by the dilution factor to yield the total cfu per teat. In cases in which no organisms were recovered from a teat, the value of 0.01 was substituted fro zero in order statistically determine the mean cfu counts.
(§5) The same set of teats was used for each trial. […]

[3] = system: Strep. Agalactiae ATCC 27956; assay: Excised teat study, Trial 2; assay type: cell-based, Streptococcus agalactiae
Experimental: as §2
as §1, with “The dilution required to prepare a challenge inoculum of approximately 1×10^8 colony-forming units (cfu)/ml of Staph. aureus or Strep. […] Challenge” for “Challenge”, “aureus and Strep. Agalactiae” for “aureus”
as §3, §4, §5

[4] = log of total organisms recovered
[5] = of plate counts at the treatment's dilution
[6] = peeling and rinse combined, total cfu per teat

## CC(=O)O [2.5% acetic acid, acetic acid]
Staph. aureus ATCC 29740 [1]
  Total organisms Recovered: 16,029,000
Staph. aureus ATCC 29740 [1]; Dilution −3
  colony count per plate: TNTC^1 and TNTC
Staph. aureus ATCC 29740 [1]; Dilution −4
  colony count per plate: 327 and 268 and 460 and 262
Staph. aureus ATCC 29740 [1]; [4]
  Log: 7.20
Staph. aureus ATCC 29740 [1]; of plate counts, dilution −4
  Geometric Mean: 320.58^3
Staph. aureus ATCC 29740 [1]; versus negative control
  Log reduction: 0.44
Staph. aureus ATCC 29740 [2]; [4]
  Log: 6.66
Staph. aureus ATCC 29740 [2]; [5]
  Geometric Mean: 92.41
Staph. aureus ATCC 29740 [2]; [6]
  Total organisms Recovered: 4,620,500
Staph. aureus ATCC 29740 [2]; versus negative control
  Log reduction: 0.76
[3]; [4]
  Log: 6.11
[3]; [5]
  Geometric Mean: 25.98
[3]; [6]
  Total organisms Recovered: 1,299,000
[3]; versus negative control
  Log reduction: 0.93
